Results from ChEMBL document CHEMBL4616687, “Ligand Design for Cereblon Based Immunomodulatory Therapy” (ACS Med Chem Lett, 2020).

Molecular target: Bromodomain-containing protein 4 (Homo sapiens, UniProt O60885)
Assay: Inhibition of BRD4 bromodomain 2 (unknown origin) in HEK293 cells cotransfected with eGFP by flow cytometry based mCherry reporter gene analysis
Assay type: cell-based

SMILES	IC50 [nM]
Nc1ccc(C(=O)NC2CCC(=O)NC2=O)c2ncccc12 (stereo not given)	2900
CN(c1ccccc1)c1nccc(NCC(=O)Nc2cccc3c2CN(C2CCC(=O)NC2=O)C3=O)n1 (stereo not given)	3440
Nc1ccnc2c(C(=O)NC3CCC(=O)NC3=O)cccc12 (stereo not given)	7700

These reach a lower IC50. Values come first.

IC50 [nM]	SMILES
517	O=C1CCC(N2Cc3c(NC(=O)CNc4ccnc(N5CCN(c6cccc(C(F)(F)F)c6)CC5)n4)cccc3C2=O)C(=O)N1 (stereo not given)
1600	O=C1CCC(N2Cc3c(NC(=O)CNc4ccnc(N5CCC[C@@H]5CO)n4)cccc3C2=O)C(=O)N1 (stereo not given in full)
